The nature of the data set: Solubility and behaviour in water. It counts as physicochemical.

Where no end group is shown, it is not given here.

GNNQQNY [GNNQQNY]: the “behaviour of solution in pure water” value (solubilised in pure water, pH not lowered) is on record as “tends to spontaneously aggregate”. The solubility in water entry (water, no solvent pre-treatment, solution clear and transparent) was “freely soluble in water”.

(Values after article doi:10.1101/2022.01.01.474692v1 (bioRxiv, 2022).)
